Reference: patent US11207431B2, “HDAC6 inhibitors and imaging agents” (The General Hospital Corporation, priority 2017, dated 2021)

Tests used:
HDAC6 = HDAC6 (Homo sapiens (Human), UniProt Q9UBN7); test: IC50 assay by Nanosyn (Caliper microfluidics mobility shift detection); format: biochemical; settings: Nanosyn (Table 1A)
[1] = tested on: Human iPSC-derived neural progenitor cells; test: Acetylation level assay (Western blot); format: cell-based; settings: 6 h at 37° C.

HDAC6, sequence (Q9UBN7 whole entry): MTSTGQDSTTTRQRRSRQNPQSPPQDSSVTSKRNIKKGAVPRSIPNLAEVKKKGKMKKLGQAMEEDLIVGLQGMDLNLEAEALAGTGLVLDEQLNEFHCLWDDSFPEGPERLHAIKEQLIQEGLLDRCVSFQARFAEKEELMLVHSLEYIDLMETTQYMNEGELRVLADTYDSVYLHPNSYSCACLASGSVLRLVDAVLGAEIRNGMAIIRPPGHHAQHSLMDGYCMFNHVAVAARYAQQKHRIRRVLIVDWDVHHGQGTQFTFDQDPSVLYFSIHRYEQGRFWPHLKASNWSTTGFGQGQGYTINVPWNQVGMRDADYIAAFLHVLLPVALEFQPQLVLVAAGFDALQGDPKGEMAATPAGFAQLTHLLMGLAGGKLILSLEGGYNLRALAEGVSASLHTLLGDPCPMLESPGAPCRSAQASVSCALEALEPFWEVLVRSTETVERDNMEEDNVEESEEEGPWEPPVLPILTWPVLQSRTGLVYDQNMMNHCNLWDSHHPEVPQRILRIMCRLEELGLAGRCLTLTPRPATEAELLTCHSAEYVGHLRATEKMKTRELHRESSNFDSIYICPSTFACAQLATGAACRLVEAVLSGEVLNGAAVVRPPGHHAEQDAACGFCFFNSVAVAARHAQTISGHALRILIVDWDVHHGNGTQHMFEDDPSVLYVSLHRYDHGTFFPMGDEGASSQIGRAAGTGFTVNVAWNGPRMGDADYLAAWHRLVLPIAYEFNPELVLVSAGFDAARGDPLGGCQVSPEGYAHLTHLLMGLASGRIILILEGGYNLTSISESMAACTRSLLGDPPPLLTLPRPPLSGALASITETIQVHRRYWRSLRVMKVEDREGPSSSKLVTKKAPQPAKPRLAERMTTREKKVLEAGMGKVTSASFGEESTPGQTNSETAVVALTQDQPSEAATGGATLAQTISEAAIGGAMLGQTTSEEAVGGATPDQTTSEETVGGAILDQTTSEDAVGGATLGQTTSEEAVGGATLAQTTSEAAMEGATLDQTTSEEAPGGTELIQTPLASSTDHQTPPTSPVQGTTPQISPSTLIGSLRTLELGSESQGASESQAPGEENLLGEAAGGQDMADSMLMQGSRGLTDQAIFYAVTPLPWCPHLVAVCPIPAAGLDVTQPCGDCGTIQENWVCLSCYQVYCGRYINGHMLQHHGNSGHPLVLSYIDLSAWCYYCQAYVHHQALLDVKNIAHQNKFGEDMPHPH

| SMILES | IC50 (HDAC6) [nM] | Histone acetylation (H3K9 and H4K12) ([1]; 10 μM) | amount of cellular acetyl-α-Tubulin ([1]; ACY1215 5 μM, other compounds 10 μM) |
| --- | --- | --- | --- |
| O=C(NO)c1ccc(CNCC2CCCCC2)cc1 [Example 25, 4-(((cyclohexylmethyl)amino)methyl)-N-hydroxybenzamide] | 84 |  |  |
| CCC(NCc1ccc(C(=O)NO)cc1)C12CC3CC(CC(C3)C1)C2 (stereo not drawn) [Example 21, 4-(((1-((3r,5r,7r)-adamantan-1-yl)propyl)amino)methyl)-N-hydroxybenzamide] | 213 |  |  |
| O=C(NO)c1ccc(CNCC23CC4CC(CC(C4)C2)C3)c(C(F)(F)F)c1 [Example 10, 4-((((adamantan-1-yl)methyl)amino)methyl)-3-trifluoromethyl-N-hydroxybenzamide] | 1020 |  |  |
| O=C(NO)c1ccc(CNCC23CC4CC(CC(C4)C2)C3)c(F)c1 [Example 16, 4-(((((3r,5r,7r)-adamantan-1-yl)methyl)amino)methyl)-3-fluoro-N-hydroxybenzamide] | 12 |  |  |
| CC1(C)C2CCC(CNCc3ccc(C(=O)NO)cc3)C1C2 (stereo not drawn) [Example 23, 4-((((6,6-dimethylbicyclo[3.1.1]heptan-2-yl)methyl)amino)methyl)-N-hydroxybenzamide] | 149 |  |  |
| O=C(NO)c1ccc(CNC23CC4CC(CC(C4)C2)C3)cc1 [Example 18, 4-((((3s,5s,7s)-adamantan-1-yl)amino)methyl)-N-hydroxybenzamide] | 1380 |  |  |
| Cc1cc(C(=O)NO)ccc1CNCC12CC3CC(CC(C3)C1)C2 [Example 11, 4-((((adamantan-1-yl)methyl)amino)methyl)-3-methyl-N-hydroxybenzamide] | 574 |  |  |
| CC(CC12CC3CC(CC(C3)C1)C2)NCc1ccc(C(=O)NO)cc1 (stereo not drawn) [Example 19, 4-(((1-(adamantan-1-yl)propan-2-yl)amino)methyl)-N-hydroxybenzamide] | 323 |  |  |
| O=C(NO)c1ccc(CNCC23CC4CC(CC(C4)C2)C3)cc1F [Example 8, 4-((((Adamantan-1-yl)methyl)amino)methyl)-2-fluoro-N-hydroxybenzamide] | 89 |  |  |
| O=C(NO)c1cc(F)c(CNCC23CC4CC(CC(C4)C2)C3)c(F)c1 [Example 9, 4-((((Adamantan-1-yl)methyl)amino)methyl)-3,5-difluoro-N-hydroxybenzamide] | 13.6 |  |  |
| CC(=O)Nc1ccc(C(=O)Nc2ccccc2N)cc1 [CI-994, tacedinaline] |  | significantly increased | did not increase |
